Source: patent publication US10150760B2, “Compounds for use in preparing heterocyclic triazole agonists of the APJ receptor” (AMGEN INC., priority 2016, dated 2018)

Target: human APJ receptor (Homo sapiens (Human), UniProt P35414)
Experiment: [35S]GTPγS binding assay on membranes from CHO cells stably expressing human APJ receptor
Format: biochemical
Details: read-out: Activity hAPJ SPA EC50 IP
Summary of the method: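 Agonist-driven [35S]GTPγS (0.2 nM) binding was measured over 90 min at room temperature on human APJ-expressing CHO membranes with bead capture, in buffer containing 3 μM GDP, 200 mM NaCl and 5 mM MgCl2 (pH 7.5). Excess unlabelled GTPγS (100 μM) gave nonspecific signal; EC50 from non-linear fits.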

Sequence of human APJ receptor (P35414 whole entry): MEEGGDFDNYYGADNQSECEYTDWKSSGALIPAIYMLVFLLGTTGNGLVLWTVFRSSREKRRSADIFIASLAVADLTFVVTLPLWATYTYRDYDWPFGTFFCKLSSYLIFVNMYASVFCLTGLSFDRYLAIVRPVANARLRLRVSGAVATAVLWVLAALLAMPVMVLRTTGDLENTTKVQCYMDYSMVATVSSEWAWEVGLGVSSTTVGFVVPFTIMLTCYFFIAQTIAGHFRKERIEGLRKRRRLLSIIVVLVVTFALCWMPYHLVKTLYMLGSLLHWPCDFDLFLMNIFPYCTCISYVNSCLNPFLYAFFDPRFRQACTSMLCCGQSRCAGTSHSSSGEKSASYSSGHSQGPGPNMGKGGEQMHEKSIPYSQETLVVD

SMILES | EC50
COc1cccc(OC)c1-n1c(NS(=O)(=O)[C@@H](C)[C@H](C)c2ncc(Cl)cn2)nnc1[C@H]1CCO[C@@H]1C (single isomer, unassigned) [Example 117.0, (2S,3R)-3-(5-chloropyrimidin-2-yl)-N-(4-(2,6-dimethoxyphenyl)-5-((2R,3R)-2-methyltetrahydrofuran-3-yl)-4H-1,2,4-triazol-3-yl)butane-2-sulfonamide or (2S,3R)-3-(5-chloropyrimidin-2-yl)-N-(4-(2,6-dimethoxyphenyl)-5-((2S,3S)-2-methyltetrahydrofuran-3-yl)-4H-1,2,4-triazol-3-yl)butane-2-sulfonamide] | 49 nM
COc1cccc(OC)c1-n1c(NS(=O)(=O)[C@@H](C)[C@H](C)c2ncc(Cl)cn2)nnc1[C@@H]1CCO[C@@H]1C (single isomer, unassigned) [Example 118.0, (2S,3R)-3-(5-chloropyrimidin-2-yl)-N-(4-(2,6-dimethoxyphenyl)-5-((2R,3S)-2-methyltetrahydrofuran-3-yl)-4H-1,2,4-triazol-3-yl)butane-2-sulfonamide or (2S,3R)-3-(5-chloropyrimidin-2-yl)-N-(4-(2,6-dimethoxyphenyl)-5-((2S,3R)-2-methyltetrahydrofuran-3-yl)-4H-1,2,4-triazol-3-yl)butane-2-sulfonamide] | 270 nM
COc1cccc(OC)c1-n1c(NS(=O)(=O)[C@@H](C)[C@H](C)c2ncc(Cl)cn2)nnc1[C@@H]1CCO[C@@H]1C (single isomer, unassigned) [Example 119.0, (2S,3R)-3-(5-chloropyrimidin-2-yl)-N-(4-(2,6-dimethoxyphenyl)-5-((2R,3S)-2-methyltetrahydrofuran-3-yl)-4H-1,2,4-triazol-3-yl)butane-2-sulfonamide or (2S,3R)-3-(5-chloropyrimidin-2-yl)-N-(4-(2,6-dimethoxyphenyl)-5-((2S,3R)-2-methyltetrahydrofuran-3-yl)-4H-1,2,4-triazol-3-yl)butane-2-sulfonamide] | 160 nM
COc1cccc(OC)c1-n1c(NS(=O)(=O)[C@@H](C)[C@H](C)c2ncc(C)cn2)nnc1[C@H]1CCO[C@@H]1C (single isomer, unassigned) [Example 120.0, (2S,3R)-N-(4-(2,6-dimethoxyphenyl)-5-((2S,3S)-2-methyltetrahydrofuran-3-yl)-4H-1,2,4-triazol-3-yl)-3-(5-methylpyrimidin-2-yl)butane-2-sulfonamide or (2S,3R)-N-(4-(2,6-dimethoxyphenyl)-5-((2R,3R)-2-methyltetrahydrofuran-3-yl)-4H-1,2,4-triazol-3-yl)-3-(5-methylpyrimidin-2-yl)butane-2-sulfonamide] | 270 nM
COc1cccc(OC)c1-n1c(NS(=O)(=O)[C@@H](C)[C@H](C)c2ncc(C)cn2)nnc1[C@@H]1CCO[C@@H]1C (single isomer, unassigned) [Example 121.0, (2S,3R)-N-(4-(2,6-dimethoxyphenyl)-5-((2R,3S)-2-methyltetrahydrofuran-3-yl)-4H-1,2,4-triazol-3-yl)-3-(5-methylpyrimidin-2-yl)butane-2-sulfonamide or (2S,3R)-N-(4-(2,6-dimethoxyphenyl)-5-((2S,3R)-2-methyltetrahydrofuran-3-yl)-4H-1,2,4-triazol-3-yl)-3-(5-methylpyrimidin-2-yl)butane-2-sulfonamide] | 880 nM
COc1cccc(OC)c1-n1c(NS(=O)(=O)[C@@H](C)[C@H](C)c2ncc(C)cn2)nnc1[C@H]1CCO[C@@H]1C (single isomer, unassigned) [Example 122.0, (2S,3R)-N-(4-(2,6-dimethoxyphenyl)-5-((2S,3S)-2-methyltetrahydrofuran-3-yl)-4H-1,2,4-triazol-3-yl)-3-(5-methylpyrimidin-2-yl)butane-2-sulfonamide or (2S,3R)-N-(4-(2,6-dimethoxyphenyl)-5-((2R,3R)-2-methyltetrahydrofuran-3-yl)-4H-1,2,4-triazol-3-yl)-3-(5-methylpyrimidin-2-yl)butane-2-sulfonamide] | 930 nM
COc1cccc(OC)c1-n1c(NS(=O)(=O)[C@@H](C)[C@H](C)c2ncc(C)cn2)nnc1[C@@H]1CCO[C@@H]1C (single isomer, unassigned) [Example 123.0, (2S,3R)-N-(4-(2,6-dimethoxyphenyl)-5-((2R,3S)-2-methyltetrahydrofuran-3-yl)-4H-1,2,4-triazol-3-yl)-3-(5-methylpyrimidin-2-yl)butane-2-sulfonamide or (2S,3R)-N-(4-(2,6-dimethoxyphenyl)-5-((2S,3R)-2-methyltetrahydrofuran-3-yl)-4H-1,2,4-triazol-3-yl)-3-(5-methylpyrimidin-2-yl)butane-2-sulfonamide] | 700 nM
CO[C@H](c1ncc(Cl)cn1)[C@H](C)S(=O)(=O)Nc1nnc([C@H]2CCOC2)n1C1(C)CC1 (single isomer, unassigned) [Example 124.0, (1R,2S)-1-(5-chloropyrimidin-2-yl)-1-methoxy-N-(4-(1-methylcyclopropyl)-5-((R)-tetrahydrofuran-3-yl)-4H-1,2,4-triazol-3-yl)propane-2-sulfonamide or (1R,2S)-1-(5-chloropyrimidin-2-yl)-1-methoxy-N-(4-(1-methylcyclopropyl)-5-((S)-tetrahydrofuran-3-yl)-4H-1,2,4-triazol-3-yl)propane-2-sulfonamide] | 440 nM
CO[C@H](c1ncc(Cl)cn1)[C@H](C)S(=O)(=O)Nc1nnc([C@H]2CCOC2)n1C1(C)CC1 (single isomer, unassigned) [Example 125.0, (1R,2S)-1-(5-chloropyrimidin-2-yl)-1-methoxy-N-(4-(1-methylcyclopropyl)-5-((R)-tetrahydrofuran-3-yl)-4H-1,2,4-triazol-3-yl)propane-2-sulfonamide or (1R,2S)-1-(5-chloropyrimidin-2-yl)-1-methoxy-N-(4-(1-methylcyclopropyl)-5-((S)-tetrahydrofuran-3-yl)-4H-1,2,4-triazol-3-yl)propane-2-sulfonamide] | 540 nM
CO[C@H](c1ncc(Cl)cn1)[C@H](C)S(=O)(=O)Nc1nnc([C@H]2CCCOC2)n1C1(C)CC1 (single isomer, unassigned) [Example 126.0, (1R,2S)-1-(5-chloropyrimidin-2-yl)-1-methoxy-N-(4-(1-methylcyclopropyl)-5-((R)-tetrahydro-2H-pyran-3-yl)-4H-1,2,4-triazol-3-yl)propane-2-sulfonamide or (1R,2S)-1-(5-chloropyrimidin-2-yl)-1-methoxy-N-(4-(1-methylcyclopropyl)-5-((S)-tetrahydro-2H-pyran-3-yl)-4H-1,2,4-triazol-3-yl)propane-2-sulfonamide] | 480 nM
CO[C@H](c1ncc(Cl)cn1)[C@H](C)S(=O)(=O)Nc1nnc([C@H]2CCCOC2)n1C1(C)CC1 (single isomer, unassigned) [Example 127.0, (1R,2S)-1-(5-chloropyrimidin-2-yl)-1-methoxy-N-(4-(1-methylcyclopropyl)-5-((R)-tetrahydro-2H-pyran-3-yl)-4H-1,2,4-triazol-3-yl)propane-2-sulfonamide or (1R,2S)-1-(5-chloropyrimidin-2-yl)-1-methoxy-N-(4-(1-methylcyclopropyl)-5-((S)-tetrahydro-2H-pyran-3-yl)-4H-1,2,4-triazol-3-yl)propane-2-sulfonamide] | 7.7 nM
CO[C@H](c1cnc(C)cn1)[C@H](C)S(=O)(=O)Nc1nnc([C@H]2CCOC2)n1C1(C)CC1 (single isomer, unassigned) [Example 128.0, (1R,2S)-1-methoxy-N-(4-(1-methylcyclopropyl)-5-((R)-tetrahydrofuran-3-yl)-4H-1,2,4-triazol-3-yl)-1-(5-methylpyrazin-2-yl)propane-2-sulfonamide or (1R,2S)-1-methoxy-N-(4-(1-methylcyclopropyl)-5-((S)-tetrahydrofuran-3-yl)-4H-1,2,4-triazol-3-yl)-1-(5-methylpyrazin-2-yl)propane-2-sulfonamide] | 790 nM
CO[C@H](c1cnc(C)cn1)[C@H](C)S(=O)(=O)Nc1nnc([C@H]2CCOC2)n1C1(C)CC1 (single isomer, unassigned) [Example 129.0, (1R,2S)-1-methoxy-N-(4-(1-methylcyclopropyl)-5-((R)-tetrahydrofuran-3-yl)-4H-1,2,4-triazol-3-yl)-1-(5-methylpyrazin-2-yl)propane-2-sulfonamide or (1R,2S)-1-methoxy-N-(4-(1-methylcyclopropyl)-5-((S)-tetrahydrofuran-3-yl)-4H-1,2,4-triazol-3-yl)-1-(5-methylpyrazin-2-yl)propane-2-sulfonamide] | 2100 nM
CO[C@H](c1cnc(C)cn1)[C@H](C)S(=O)(=O)Nc1nnc([C@H]2CCCOC2)n1C1(C)CC1 (single isomer, unassigned) [Example 130.0, (1R,2S)-1-methoxy-N-(4-(1-methylcyclopropyl)-5-((R)-tetrahydro-2H-pyran-3-yl)-4H-1,2,4-triazol-3-yl)-1-(5-methylpyrazin-2-yl)propane-2-sulfonamide or (1R,2S)-1-methoxy-N-(4-(1-methylcyclopropyl)-5-((S)-tetrahydro-2H-pyran-3-yl)-4H-1,2,4-triazol-3-yl)-1-(5-methylpyrazin-2-yl)propane-2-sulfonamide] | 1800 nM
CO[C@H](c1cnc(C)cn1)[C@H](C)S(=O)(=O)Nc1nnc([C@H]2CCCOC2)n1C1(C)CC1 (single isomer, unassigned) [Example 131.0, (1R,2S)-1-methoxy-N-(4-(1-methylcyclopropyl)-5-((R)-tetrahydro-2H-pyran-3-yl)-4H-1,2,4-triazol-3-yl)-1-(5-methylpyrazin-2-yl)propane-2-sulfonamide or (1R,2S)-1-methoxy-N-(4-(1-methylcyclopropyl)-5-((S)-tetrahydro-2H-pyran-3-yl)-4H-1,2,4-triazol-3-yl)-1-(5-methylpyrazin-2-yl)propane-2-sulfonamide] | 550 nM
